One assay concerns the target T1, KRAS G12C (Homo sapiens, UniProt P01116, G12C).
T1 construct: Kras (aa 2-169), GST; purchased Reaction Biology Corporation (RBC)
Kind of assay: KRAS G12C nucleotide exchange assay (SOS1 mediated, HTRF). Format: biochemical. The following applies: 1 hr pre-incubation at RT, read-out: IC50 (inhibition of KRas G12C). As for the experimental part: Exemplary compounds were tested for ability to inhibit KRas G12C.
KRAS target engagement (IC50 determination) was performed using a KRAS G12C nucleotide exchange assay (Reaction Biology Corporation). Specifically, compounds were tested against KRAS G12C in 10-point concentration IC50 mode with 3-fold serial dilution at a starting concentration of 10 μM. ARS1620 was used as a control. Compounds were pre-incubated with protein for 1 hr at RT. Parameters for the assay were:
In the method, Kras was mixed with a-GST Tb antibody (1.5× solution) and […] was delivered to reaction wells. Compounds were delivered using acoustic dispenser (Echo, Labcyte). Kras/aGST-Tb Ab/compound mixture was incubated for 1 hour at room temperature. A 3× solution of SOS1 and GTP* was prepared in reaction buffer. A […] aliquot of SOS1/GTP* solution was added to reaction well to initiate the exchange reaction. No—SOS1 reaction or max compound concentration was used as blank. IC50 determination was performed using a Sigmoidal dose response (variable slope) equation.
(Time-resolved FRET reads energy transfer from a long-lived donor to a nearby acceptor.)

Another assay relates to HEK293 cells. Kind of assay: Cellular growth inhibition assay (CellTiter-Glo), HEK293 cells. Format: cell-based. The following applies: Homo sapiens, 72 h, three days compound treatment, CellTiter-Glo 2.0, read-out: CTG HEK293 GI50. In short, it runs like this: (§1)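 GI50 derived by four-parameter regression of luminescence (CellTiter-Glo 2.0) at Day 0 and Day 3, normalized to DMSO wells. Cells (HeLa, HEK293; 500/well, DMEM plus 10% FBS) were dosed with compound dilutions 24 h post-seeding and exposed for three days at 37 °C.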
Background: In ATP-based viability assays light output follows the ATP content of the culture.

For a further assay, the target named is T2, EGFR (Homo sapiens, UniProt P00533).
T2 construct: purchased
Kind of assay: KdELECT binding assay, EGFR. In short, it runs like this:
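Competition binding: DNA- or T7 phage-tagged EGFR was incubated 1 h at room temperature with immobilized ligand beads and an 11-point 3-fold compound series (0.9% DMSO final). Bead-bound kinase was eluted and quantified by qPCR to derive Kd.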

The test system of a further assay is HeLa cells. Nature of the assay: Cellular growth inhibition assay (CellTiter-Glo), HeLa cells. The settings on record: Homo sapiens, 72 h, three days compound treatment, CellTiter-Glo 2.0, read-out: CTG HELA GI50. Format: cell-based. Put shortly: as §1
Assay [1] addresses T3, EGFR WT (amino acids 669-1011, Accession Number NP_005219.2) (Homo sapiens, UniProt P00533).
T3 construct: purchased Eurofins Discovery; host or cells: bacteria (E. coli, BL21-derived, T7 phage)
Nature of the assay: KdELECT binding assay (Eurofins Discovery), EGFR WT. Put shortly: (§2)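 Competition binding: WT kinase as T7 phage fusion from E. coli, T790M/L858R produced in HEK-293 and DNA-tagged, incubated 1 h at room temperature with immobilized ligand beads and compound (11-point 3-fold series, 0.9% DMSO). Bead-bound kinase eluted and quantified by qPCR to derive Kd.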

Assay [2] concerns the target T4, EGFR T790M, L858R (amino acids 669-1011 Accession Number NP_005219.2) (Homo sapiens, UniProt P00533, L858R/T790M).
T4 construct: purchased Eurofins Discovery; host or cells: mammalian cells (HEK-293)
Kind of assay: KdELECT binding assay (Eurofins Discovery), EGFR T790M, L858R. The following applies: read-out: EGFR DM Kd. In short, it runs like this: as §2

This note sets out measurements from patent US20250032623A1, “HETEROBIFUNCTIONAL COMPOUNDS AND THEIR USE IN TREATING DISEASE” (HALDA THERAPEUTICS OPCO, INC., priority 2021, published 2025).

In general, IC50 refers to the concentration needed to halve the response being measured. As a reminder, the GI50 is the concentration that inhibits growth by half. One may read the Kd as the constant that tells how readily two partners part at equilibrium.

T1 sequence (P01116 2-169 isoform P01116-2 G12C): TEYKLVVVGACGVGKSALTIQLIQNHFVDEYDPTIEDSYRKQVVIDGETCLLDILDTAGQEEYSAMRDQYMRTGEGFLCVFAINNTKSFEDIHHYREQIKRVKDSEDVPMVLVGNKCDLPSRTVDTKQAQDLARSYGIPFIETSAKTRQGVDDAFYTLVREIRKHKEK
T2 sequence (P00533 25-1210): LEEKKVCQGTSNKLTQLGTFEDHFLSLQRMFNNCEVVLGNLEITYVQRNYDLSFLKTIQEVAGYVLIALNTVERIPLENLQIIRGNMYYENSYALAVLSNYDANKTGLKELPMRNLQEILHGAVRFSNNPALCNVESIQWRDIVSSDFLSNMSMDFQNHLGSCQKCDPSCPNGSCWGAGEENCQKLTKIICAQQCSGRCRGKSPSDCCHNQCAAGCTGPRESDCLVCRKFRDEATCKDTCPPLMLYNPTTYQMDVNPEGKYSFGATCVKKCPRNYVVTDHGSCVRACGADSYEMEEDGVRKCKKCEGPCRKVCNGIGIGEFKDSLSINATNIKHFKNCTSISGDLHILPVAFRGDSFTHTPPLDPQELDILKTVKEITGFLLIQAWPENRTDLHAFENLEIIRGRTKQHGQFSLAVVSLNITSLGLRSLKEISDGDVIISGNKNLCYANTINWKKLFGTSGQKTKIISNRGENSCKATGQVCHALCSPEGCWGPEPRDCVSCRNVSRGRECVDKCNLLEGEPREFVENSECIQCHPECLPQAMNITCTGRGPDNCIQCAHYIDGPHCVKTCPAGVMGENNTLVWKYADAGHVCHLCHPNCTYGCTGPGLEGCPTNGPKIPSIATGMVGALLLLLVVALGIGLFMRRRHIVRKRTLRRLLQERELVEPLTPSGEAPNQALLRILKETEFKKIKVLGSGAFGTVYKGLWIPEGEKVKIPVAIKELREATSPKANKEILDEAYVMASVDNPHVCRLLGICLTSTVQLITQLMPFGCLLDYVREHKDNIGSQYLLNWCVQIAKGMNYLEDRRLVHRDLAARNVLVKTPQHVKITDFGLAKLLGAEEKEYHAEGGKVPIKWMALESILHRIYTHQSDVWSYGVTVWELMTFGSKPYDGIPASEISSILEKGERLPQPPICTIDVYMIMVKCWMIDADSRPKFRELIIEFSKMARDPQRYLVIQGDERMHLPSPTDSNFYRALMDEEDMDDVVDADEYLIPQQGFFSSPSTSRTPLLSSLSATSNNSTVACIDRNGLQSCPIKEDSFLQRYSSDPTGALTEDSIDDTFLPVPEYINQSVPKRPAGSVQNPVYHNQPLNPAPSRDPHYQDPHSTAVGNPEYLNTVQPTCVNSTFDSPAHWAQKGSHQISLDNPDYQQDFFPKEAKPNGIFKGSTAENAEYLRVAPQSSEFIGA
T3 sequence (P00533 669-1011): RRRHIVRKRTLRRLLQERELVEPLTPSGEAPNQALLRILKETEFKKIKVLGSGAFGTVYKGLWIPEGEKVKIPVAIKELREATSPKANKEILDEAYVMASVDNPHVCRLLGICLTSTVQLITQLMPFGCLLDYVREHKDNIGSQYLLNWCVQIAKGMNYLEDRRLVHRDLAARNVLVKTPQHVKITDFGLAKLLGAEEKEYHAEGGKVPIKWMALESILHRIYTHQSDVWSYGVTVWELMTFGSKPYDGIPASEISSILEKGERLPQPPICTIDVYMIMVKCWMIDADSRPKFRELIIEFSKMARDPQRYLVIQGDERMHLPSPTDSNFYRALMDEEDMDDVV
T4 sequence (P00533 669-1011 T790M/L858R): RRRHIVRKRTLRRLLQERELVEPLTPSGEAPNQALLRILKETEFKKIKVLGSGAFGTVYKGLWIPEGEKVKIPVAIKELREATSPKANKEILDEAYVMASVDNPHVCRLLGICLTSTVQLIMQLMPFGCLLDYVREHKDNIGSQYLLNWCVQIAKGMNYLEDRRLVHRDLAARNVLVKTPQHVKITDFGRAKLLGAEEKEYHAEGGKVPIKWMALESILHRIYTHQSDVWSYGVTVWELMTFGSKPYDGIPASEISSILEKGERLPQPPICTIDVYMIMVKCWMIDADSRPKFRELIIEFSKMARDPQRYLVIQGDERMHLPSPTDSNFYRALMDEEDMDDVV

For the compound `C=C(F)C(=O)N1CCN(c2nc(OCC3CCCN3CCOCCOCCOCCOCCOCCOCCOCCOCCNC(=O)c3cccc(-c4ccc5c(N6CCOCC6C)nc(N6CCOCC6C)nc5n4)c3)nc3c2CCN(c2cccc4cccc(Cl)c24)C3)CC1CC#N` [Compound I-21, 3-[2,4-bis[(3R)-3-methylmorpholin-4-yl]pyrido[2,3-d]pyrimidin-7-yl]-N-[2-[2-[2-[2-[2-[2-[2-[2-[2-[(2S)-2-[[7-(8-chloro-1-naphthyl)-4-[(3S)-3-(cyanomethyl)-4-(2-fluoroprop-2-enoyl)piperazin-1-yl]-6,8-dihydro-SH-pyrido[3,4-d]pyrimidin-2-yl]oxymethyl]pyrrolidin-1-yl]ethoxy]ethoxy]ethoxy]ethoxy]ethoxy]ethoxy]ethoxy]ethoxy]ethyl]benzamide], at KRAS G12C, the IC50 is 100 to 1000 nM.
Turning to `C=C(F)C(=O)N1CCN(c2nc(OC[C@@H]3CCCN3CCOCCOCCNC(=O)c3ccc(Nc4ncc5c(n4)N(C4CCCC4)[C@H](CC)C(=O)N5C)c(OC)c3)nc3c2CCN(c2cccc4cccc(Cl)c24)C3)C[C@@H]1CC#N` [Compound I-63, N-(2-(2-(2-((S)-2-(((7-(8-chloronaphthalen-1-yl)-4-((S)-3-(cyanomethyl)-4-(2-fluoroacryloyl)piperazin-1-yl)-5,6,7,8-tetrahydropyrido[3,4-d]pyrimidin-2-yl)oxy)methyl)pyrrolidin-1-yl)ethoxy)ethoxy)ethyl)-4-(((R)-8-cyclopentyl-7-ethyl-5-methyl-6-oxo-5,6,7,8-tetrahydropteridin-2-yl)amino)-3-methoxybenzamide], at KRAS G12C, the IC50 is less than 100 nM.
On the same count and under the same terms, the figure for `C=C(F)C(=O)N1CCN(c2nc(OC[C@@H]3CCCN3CCOCCOCCOCCOCCOCCOCCNC(=O)c3ccc(Nc4ncc5c(n4)N(C4CCCC4)[C@H](CC)C(=O)N5C)c(OC)c3)nc3c2CCN(c2cccc4cccc(Cl)c24)C3)C[C@@H]1CC#N` [Compound I-65, N-[2-[2-[2-[2-[2-[2-[2-[(2S)-2-[[7-(8-chloro-1-naphthyl)-4-[(3S)-3-(cyanomethyl)-4-(2-fluoroprop-2-enoyl)piperazin-1-yl]-6,8-dihydro-5H-pyrido1[3,4-d]pyrimidin-2-yl]oxymethyl]pyrrolidin-1-yl]ethoxy]ethoxy]ethoxy]ethoxy]ethoxy]ethoxy]ethyl]-4-[1[(7R)-8-cyclopentyl-7-ethyl-5-methyl-6-oxo-7H-pteridin-2-yl]amino]-3-methoxy-benzamide] is 100 to 1000 nM; for `Cc1ccnc(C(C)C)c1-n1c(=O)nc(N2CCN(C(=O)/C=C/CN(C)CCOCCOCCOCCOCCOCCOCCON(C)C(=O)N3N=C(c4cc(F)ccc4F)SC3(CCCN)c3ccccc3)C[C@@H]2C)c2cc(F)c(-c3c(O)cccc3F)nc21` (some centres unmarked) [Compound I-77] it is 1000 to 5000 nM.
Still for that read-out and setting: to `Cc1ccnc(C(C)C)c1-n1c(=O)nc(N2CCN(C(=O)/C=C/CN(C)CCOCCOCCOCCOCCOCCOCCOCCOCCON(C)C(=O)N3N=C(c4cc(F)ccc4F)SC3(CCCN)c3ccccc3)C[C@@H]2C)c2cc(F)c(-c3c(O)cccc3F)nc21` (some centres unmarked) [Compound I-79] belongs 1000 to 5000 nM.
Regarding `CN(C/C=C/C(=O)N1CCN(c2nc(OC[C@@H]3CCCN3C)nc3c2CCN(c2cccc4cccc(Cl)c24)C3)C[C@@H]1CC#N)CCOCCOCCOCCOCCON(C)C(=O)N1N=C(c2cc(F)ccc2F)SC1(CCCN)c1ccccc1` (stereo partly drawn) [Compound I-96, 2-(3-aminopropyl)-N-[2-[2-[2-[2-[2-[[(E)-4-[(2S)-4-[7-(8-chloro-1-naphthyl)-2-[[(2S)-1-methylpyrrolidin-2-yl]methoxy]-6,8-dihydro-5H-pyrido[3,4-d]pyrimidin-4-yl]-2-(cyanomethyl)piperazin-1-yl]-4-oxo-but-2-enyl]-methylamino]ethoxy]ethoxy]ethoxy]ethoxy]ethoxy]-5-(2,5-difluorophenyl)-N-methyl-2-phenyl-1,3,4-thiadiazole-3-carboxamide], the IC50 on KRAS G12C is less than 100 nM.
`C=C(F)C(=O)N1CCN(c2nc(OC[C@@H]3CCCN3CCCNC(=O)c3ccc(Nc4ncc5c(n4)N(C4CCCC4)[C@H](CC)C(=O)N5C)c(OC)c3)nc3c2CCN(c2cccc4cccc(Cl)c24)C3)C[C@@H]1CC#N` [Compound I-102, N-[3-[(2S)-2-[[7-(8-chloro-1-naphthyl)-4-[(3S)-3-(cyanomethyl)-4-(2-fluoroprop-2-enoyl)piperazin-1-yl]-6,8-dihydro-5H-pyrido[3,4-d]pyrimidin-2-yl]oxymethyl]pyrrolidin-1-yl]propyl]-4-[[(7R)-8-cyclopentyl-7-ethyl-5-methyl-6-oxo-7H-pteridin-2-yl]amino]-3-methoxy-benzamide]: the concentration for half-maximal inhibition (IC50) at KRAS G12C lay within 100 to 1000 nM. Further, in the assay on HEK293 cells, the GI50 was 500 to 1500 nM.
With `C=C(F)C(=O)N1CCN(c2nc(OC[C@@H]3CCCN3CCCOCCOCCNC(=O)c3ccc(Nc4ncc5c(n4)N(C4CCCC4)[C@H](CC)C(=O)N5C)c(OC)c3)nc3c2CCN(c2cccc4cccc(Cl)c24)C3)C[C@@H]1CC#N` [Compound I-103, N-[2-[2-[3-[(2S)-2-1[[7-(8-chloro-1-naphthyl)-4-[(3S)-3-(cyanomethyl)-4-(2-fluoroprop-2-enoyl)piperazin-1-yl]-6,8-dihydro-5H-pyrido1[3,4-d]pyrimidin-2-yl]oxymethyl]pyrrolidin-1-yl]propoxy]ethoxy]ethyl]-4-[1[(7R)-8-cyclopentyl-7-ethyl-5-methyl-6-oxo-7H-pteridin-2-yl]amino]-3-methoxy-benzamide], the IC50 at KRAS G12C is less than 100 nM. Moreover, in the assay on HEK293 cells, the GI50 lay in the range of 500 to 1500 nM.
`C=C(F)C(=O)N1CCN(c2nc(OC[C@@H]3CCCN3CCCOCCOCCOCCNC(=O)c3ccc(Nc4ncc5c(n4)N(C4CCCC4)[C@H](CC)C(=O)N5C)c(OC)c3)nc3c2CCN(c2cccc4cccc(Cl)c24)C3)C[C@@H]1CC#N` [Compound I-104, N-[2-[2-[2-[3-[(2S)-2-[[7-(8-chloro-1-naphthyl)-4-[(3S)-3-(cyanomethyl)-4-(2-fluoroprop-2-enoyl)piperazin-1-yl]-6,8-dihydro-5H-pyrido[3,4-d]pyrimidin-2-yl]oxymethyl]pyrrolidin-1-yl]propoxy]ethoxy]ethoxy]ethyl]-4-[[(7R)-8-cyclopentyl-7-ethyl-5-methyl-6-oxo-7H-pteridin-2-yl]amino]-3-methoxy-benzamide]: the half-maximal inhibitory concentration (IC50) on KRAS G12C is less than 100 nM. Further, the 50% growth inhibitory concentration (GI50) in the assay on HEK293 cells lay in the range of 500 to 1500 nM.
For the compound `CC[C@@H]1C(=O)N(C)c2cnc(Nc3ccc(C(=O)NCCCN4CCN(CCCN(C)C/C=C/C(=O)N[C@@H]5CN(c6nc(Nc7cn(C)nc7OC)c7ncn(C)c7n6)C[C@H]5F)CC4)cc3OC)nc2N1C1CCCC1` [Compound I-152, 4-[[(7R)-8-cyclopentyl-7-ethyl-5-methyl-6-oxo-7H-pteridin-2-yl]amino]-N-[3-[4-[3-[[(E)-4-[[(3R,4R)-4-fluoro-1-1[6-1[(3-methoxy-1-methyl-pyrazol-4-yl)amino]-9-methyl-purin-2-yl]pyrrolidin-3-yl]amino]-4-oxo-but-2-enyl]-methyl-amino]propyl]piperazin-1-yl]propyl]-3-methoxy-benzamide], the Kd was 500 to 2500 nM at EGFR, 500 to 2500 nM in assay [1] and less than 50 nM in assay [2]. Moreover, the GI50 is less than 500 nM in the assay on HeLa cells and greater than 5000 nM in the assay on HEK293 cells.
